According to patent publication US8354419B2, “Benzimidazole analogues for the treatment or prevention of flavivirus infections” (Vertex Pharmaceuticals Incorporated, priority 2009, dated 2013):

test system: HCV (Ib) RNA replication; test: Cell-based luciferase reporter HCV (1b) RNA replication assay (replicon cell lines Huh-7 5.2 and ET); design: species or system Hepatitis C virus; conditions: HCV 1b genotype replicon, luciferase readout, 4 days incubation; read-out: EC50_1b
Summary of the method: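 Huh-7-derived 5.2 or ET replicon cells carrying a firefly luciferase reporter were seeded at ~3000 cells/well in medium without G418 or phenol red. Compound was added after 3-4 h, followed by 4 days at 37 °C. Luciferase readout was used, with IC50 fitted by nonlinear regression from eleven concentrations in duplicate.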

`COC(=O)NC(C(=O)N1CCC[C@H]1c1nc2ccc(-c3ccc(-c4ccc5nc([C@@H]6CCCN6C(=O)[C@@H](NC(=O)OC)C(C)C)[nH]c5c4)cc3)cc2[nH]1)C(C)(C)C` (stereo partly drawn) [Compound 212] and `COC(=O)N[C@H](C(=O)N1CC2CC2C1c1nc2cc(-c3ccc(-c4ccc5[nH]c(C6C7CC7CN6C(=O)[C@@H](NC(=O)OC)C(C)C)nc5c4)cc3)ccc2[nH]1)C(C)C` (stereo partly drawn) [Compound 244] cannot be ordered by EC50: at most 5 nM for the first, at most 5 nM for the second.

same assay, conditions: Hepatitis C virus, Huh-7, 96 h, HCV 1b genotype replicon, luciferase readout, 4 days incubation; read-out: EC50_1b

`COC(=O)N[C@@H](Cc1cncn1C)C(=O)N1CCC[C@H]1c1nc2cc(-c3ccc(-c4ccc5[nH]c([C@@H]6CCCN6C(=O)[C@@H](NC(=O)OC)C(C)C)nc5c4)cc3)ccc2[nH]1` [Compound 203] and `COC(=O)N[C@H](C(=O)N1CCC[C@H]1c1nc2cc(-c3ccc(-c4ccc5[nH]c([C@@H]6CCCN6C(=O)[C@@H](NC(=O)OC)[C@@H](C)OC)nc5c4)cc3)ccc2[nH]1)C(C)C` [Compound 208] cannot be ordered by EC50: at most 5 nM for the first, at most 5 nM for the second.

`COC(=O)N[C@H](C(=O)N1CCC[C@H]1c1nc2cc(C#Cc3ccc4[nH]c([C@@H]5CCCN5C(=O)[C@@H](NC(=O)OC)[C@@H](C)OC)nc4c3)ccc2[nH]1)[C@@H](C)OC` [Compound 206] and `COC(=O)N[C@H](C(=O)N1CCC[C@H]1c1nc2cc(-c3ccc(-c4ccc5[nH]c([C@@H]6CCCN6C(=O)[C@@H](NC(=O)OC)[C@@H](C)OC)nc5c4)c(C)c3)ccc2[nH]1)[C@@H](C)OC` [Compound 207] cannot be ordered by EC50: at most 5 nM for the first, at most 5 nM for the second.

`CC(C)[C@H](O)C(=O)N1CCC[C@H]1c1nc2cc(-c3ccc(-c4ccc5nc([C@@H]6CCCN6C(=O)[C@@H](O)C(C)C)[nH]c5c4)c4c3OCO4)ccc2[nH]1` [Compound 209] and `CC[C@@H](C(=O)N1CCC[C@H]1c1nc2cc(-c3ccc(-c4ccc5nc([C@@H]6CCCN6C(=O)[C@H](CC)N(C)C(=O)OC)[nH]c5c4)c4c3OCO4)ccc2[nH]1)N(C)C(=O)OC` [Compound 215] cannot be ordered by EC50: 5 to 5000 nM for the first, at most 5 nM for the second.

`O=C(OCc1ccccc1)N1CCC[C@H]1c1nc2ccc(N3CCN(c4ccc5nc([C@@H]6CCCN6C(=O)OCc6ccccc6)[nH]c5c4)CC3)cc2[nH]1` [Compound 210] and `COC(=O)N[C@H](C(=O)N1CCC[C@H]1c1nc2ccc(N3CCN(c4ccc5nc([C@@H]6CCCN6C(=O)[C@@H](NC(=O)OC)C(C)C)[nH]c5c4)CC3)cc2[nH]1)C(C)C` [Compound 229] cannot be ordered by EC50: 5 to 5000 nM for the first, at most 5 nM for the second.

`COC(=O)NC(C(=O)N1CCC[C@H]1c1nc2ccc(-c3ccc(-c4ccc5nc([C@@H]6CCCN6C(=O)[C@@H](NC(=O)OC)C(C)C)[nH]c5c4)cc3)cc2[nH]1)C(C)(C)C` (stereo partly drawn) [Compound 211] and `COC(=O)N[C@H](C(=O)N1CCC[C@H]1c1nc2cc(-c3ccc(-c4ccc5c(c4)nc([C@@H]4CCCN4C(=O)[C@@H](NC(=O)OC)C(C)C)n5C)cc3)ccc2[nH]1)C(C)C` [Compound 232] cannot be ordered by EC50: at most 5 nM for the first, at most 5 nM for the second.

`CCc1cc(-c2ccc3[nH]c([C@@H]4CCCN4C(=O)[C@@H](NC(=O)OC)C(C)C)nc3c2)ccc1-c1ccc2[nH]c([C@@H]3CCCN3C(=O)[C@@H](NC(=O)OC)C(C)C)nc2c1` [Compound 213] and `COC(=O)N[C@H](C(=O)N1CCC[C@H]1c1nc2cc(-c3ccc(-c4ccc5nc([C@@H]6CCCN6C(=O)[C@@H](NC(=O)OC)C(C)C)[nH]c5c4)cc3CF)ccc2[nH]1)C(C)C` [Compound 220] cannot be ordered by EC50: at most 5 nM for the first, at most 5 nM for the second.

`COC(=O)N[C@H](C(=O)N1CCC[C@H]1c1nc2cc(-c3nc(C)c(-c4ccc5[nH]c([C@@H]6CCCN6C(=O)[C@@H](NC(=O)OC)C(C)C)nc5c4)s3)ccc2[nH]1)C(C)C` [Compound 214] and `COC(=O)N[C@H](C(=O)N1CCCC1c1nc2cc(-c3ccc(-c4ccc(-c5ccc6[nH]c(C7CCCN7C(=O)[C@@H](NC(=O)OC)C(C)C)nc6c5)s4)s3)ccc2[nH]1)C(C)C` (stereo partly drawn) [Compound 217] cannot be ordered by EC50: at most 5 nM for the first, at most 5 nM for the second.

`COC(=O)N[C@H](C(=O)N1CCC[C@H]1c1nc2cc(-c3ccc(-c4ccc5nc([C@@H]6CCCN6C(=O)CCCC[C@@H]6SC[C@@H]7NC(=O)N[C@@H]76)[nH]c5c4)cc3)ccc2[nH]1)C(C)C` [Compound 216] and `COC(=O)N[C@H](C(=O)N1CCC[C@H]1c1nc2cc(-c3ccc(-c4ccc5[nH]c([C@@H]6CCCN6C(=O)[C@@H](Nc6ncccn6)C(C)C)nc5c4)cc3)ccc2[nH]1)C(C)C` [Compound 241] cannot be ordered by EC50: at most 5 nM for the first, at most 5 nM for the second.

`COCc1cc(-c2ccc3[nH]c([C@@H]4CCCN4C(=O)[C@@H](NC(=O)OC)C(C)C)nc3c2)c(COC)cc1-c1ccc2[nH]c([C@@H]3CCCN3C(=O)[C@@H](NC(=O)OC)C(C)C)nc2c1` [Compound 218] and `COC(=O)N[C@H](C(=O)N1CCC[C@H]1c1nc2cc(-c3ccc(-c4ccc5[nH]c([C@@H]6CCCN6C(=O)[C@@H](NC(=O)OC)C(C)C)nc5c4)c4c3OC(F)(F)O4)ccc2[nH]1)C(C)C` [Compound 221] cannot be ordered by EC50: at most 5 nM for the first, at most 5 nM for the second.

`COC(=O)N[C@H](C(=O)N1CCC[C@H]1c1nc2cc(-c3ccc(-c4ccc5nc([C@@H]6CCCN6C(=O)[C@@H](NC(=O)OC)C(C)(C)O)[nH]c5c4)c4c3OCO4)ccc2[nH]1)C(C)(C)O` [Compound 219] and `COC(=O)N[C@H](C(=O)N1CCC[C@H]1c1nc2ccc(-c3coc(-c4ccc5nc([C@@H]6CCCN6C(=O)[C@@H](NC(=O)OC)C(C)C)[nH]c5c4)n3)cc2[nH]1)C(C)C` [Compound 236] cannot be ordered by EC50: at most 5 nM for the first, at most 5 nM for the second.

`COC(=O)N[C@H](C(=O)N1C[C@@H](OC)C[C@H]1c1nc2cc(-c3ccc(-c4ccc5[nH]c([C@@H]6C[C@H](OC)CN6C(=O)[C@@H](NC(=O)OC)C(C)C)nc5c4)cc3)ccc2[nH]1)C(C)C` [Compound 222] and `COC(=O)N[C@H](C(=O)N1C[C@H](C)C[C@H]1c1nc2cc(-c3ccc(-c4ccc5[nH]c([C@@H]6C[C@@H](C)CN6C(=O)[C@@H](NC(=O)OC)C(C)C)nc5c4)cc3)ccc2[nH]1)C(C)C` [Compound 248] cannot be ordered by EC50: at most 5 nM for the first, at most 5 nM for the second.

Compared with `Cn1c([C@@H]2CCCN2C(=O)OC(C)(C)C)nc2cc(-c3ccc(-c4ccc5c(c4)nc([C@@H]4CCCN4C(=O)OC(C)(C)C)n5C)cc3)ccc21` [Compound 225], `Cn1c([C@@H]2CCCN2C(=O)OC(C)(C)C)nc2cc(-c3ccc(-c4ccc5[nH]c([C@@H]6CCCN6C(=O)OC(C)(C)C)nc5c4)cc3)ccc21` [Compound 226] is lower in EC50: over 5000 nM for the first, 5 to 5000 nM for the second. The second is the more potent here.

`Cn1c([C@@H]2CCCN2)nc2cc(-c3ccc(-c4ccc5c(c4)nc([C@@H]4CCCN4)n5C)cc3)ccc21` [Compound 227] and `Cn1c([C@@H]2CCCN2)nc2cc(-c3ccc(-c4ccc5[nH]c([C@@H]6CCCN6)nc5c4)cc3)ccc21` [Compound 228] cannot be ordered by EC50: over 5000 nM for the first, over 5000 nM for the second.

`O=C1O[C@@H]2C[C@@H]3C[C@@H]2[C@@H]1[C@H]3C(=O)N1CCC[C@H]1c1nc2cc(-c3ccc(-c4ccc5[nH]c([C@@H]6CCCN6C(=O)[C@H]6[C@H]7C[C@@H]8[C@H]6C(=O)O[C@@H]8C7)nc5c4)cc3)ccc2[nH]1` [Compound 230] and `COC(=O)N[C@H](C(=O)N1[C@H](c2nc3cc(-c4ccc(-c5ccc6[nH]c([C@@H]7C[C@@H]8C[C@@H]8N7C(=O)[C@@H](NC(=O)OC)C(C)C)nc6c5)cc4)ccc3[nH]2)C[C@@H]2C[C@@H]21)C(C)C` [Compound 234] cannot be ordered by EC50: 5 to 5000 nM for the first, at most 5 nM for the second.

Compared with `COC(=O)N[C@H](C(=O)N1CCC[C@H]1c1nc2cc(-c3ccc(-c4ccc5c(c4)nc([C@@H]4CCCN4C(=O)[C@@H](NC(=O)OC)C(C)C)n5C)cc3)ccc2n1C)C(C)C` [Compound 231], `COC(=O)N[C@H](C(=O)N1CC[C@@H](O)[C@H]1c1nc2ccc(-c3ccc(-c4ccc5nc([C@@H]6[C@H](O)CCN6C(=O)[C@@H](NC(=O)OC)C(C)C)[nH]c5c4)cc3)cc2[nH]1)C(C)C` [Compound 235] is lower in EC50: over 5000 nM for the first, at most 5 nM for the second.

`COC(=O)N[C@H](C(=O)N1C[C@@H](C)C[C@H]1c1nc2cc(-c3cc4sc(-c5ccc6[nH]c([C@@H]7C[C@H](C)CN7C(=O)[C@@H](NC(=O)OC)C(C)C)nc6c5)cc4s3)ccc2[nH]1)C(C)C` [Compound 233] and `COC(=O)N[C@H](C(=O)N1C[C@@H](C)C[C@H]1c1nc2cc(-c3ccc(-c4ccc5[nH]c([C@@H]6C[C@H](C)CN6C(=O)[C@@H](NC(=O)OC)C(C)C)nc5c4)c(C)c3)ccc2[nH]1)C(C)C` [Compound 237] cannot be ordered by EC50: at most 5 nM for the first, at most 5 nM for the second.

`COC(=O)N[C@H](C(=O)N1CCC[C@H]1c1nc2ccc(-c3cn(C)c(-c4ccc5nc([C@@H]6CCCN6C(=O)[C@@H](NC(=O)OC)C(C)C)[nH]c5c4)n3)cc2[nH]1)C(C)C` [Compound 238] and `COC(=O)N[C@H](C(=O)N1C[C@@H](C)C[C@H]1c1nc2cc(-c3ccc(-c4ccc5nc([C@@H]6C[C@@H](O)CN6C(=O)[C@H](NC(=O)OC)C(C)C)[nH]c5c4)cc3)ccc2[nH]1)C(C)C` [Compound 246] cannot be ordered by EC50: 5 to 5000 nM for the first, at most 5 nM for the second.

`COC(=O)N[C@H](C(=O)N1[C@@H]2C[C@@H]2C[C@H]1c1nc2cc(-c3ccc(-c4ccc5[nH]c([C@@H]6C[C@H]7C[C@H]7N6C(=O)[C@@H](NC(=O)OC)C(C)C)nc5c4)cc3)ccc2[nH]1)C(C)C` [Compound 240] and `COC(=O)N[C@H](C(=O)N1CC2CC2C1c1nc2cc(-c3ccc(-c4ccc5[nH]c(C6C7CC7CN6C(=O)[C@@H](NC(=O)OC)C(C)C)nc5c4)cc3)ccc2[nH]1)C(C)C` (stereo partly drawn) [Compound 243] cannot be ordered by EC50: at most 5 nM for the first, at most 5 nM for the second.

`COC(=O)N[C@H](C(=O)N1C[C@@H](C)C[C@H]1c1nc2cc(-c3ccc(-c4ccc5[nH]c([C@@H]6C[C@H](C)CN6C(=O)[C@@H](NC(=O)OC)C(C)C)nc5c4)c(F)c3)ccc2[nH]1)C(C)C` [Compound 242] and `COC(=O)N(C)[C@H](C(=O)N1C[C@@H](C)C[C@H]1c1nc2cc(-c3ccc(-c4ccc5[nH]c([C@@H]6C[C@H](C)CN6C(=O)[C@H](C(C)C)N(C)C(=O)OC)nc5c4)cc3)ccc2[nH]1)C(C)C` [Compound 247] cannot be ordered by EC50: at most 5 nM for the first, at most 5 nM for the second.

`COC(=O)N[C@H](C(=O)N1CC2(CC2)C[C@H]1c1nc2cc(-c3ccc(-c4ccc5[nH]c([C@@H]6CC7(CC7)CN6C(=O)[C@@H](NC(=O)OC)C(C)C)nc5c4)cc3)ccc2[nH]1)C(C)C` [Compound 245] and `COC(=O)N[C@H](C(=O)N1CCC[C@@]1(C)c1nc2cc(-c3ccc(-c4ccc5[nH]c([C@]6(C)CCCN6C(=O)[C@@H](NC(=O)OC)C(C)C)nc5c4)cc3)ccc2[nH]1)C(C)C` [Compound 249] cannot be ordered by EC50: at most 5 nM for the first, at most 5 nM for the second.
